Peptide text beside a SMILES is read from it.
How the values were obtained:
[1] = Net charge of self-assembling peptides in solution; assay type: physicochemical; conditions: for net charge as a function of pH: around neutral pH; for Net charge at pH 7.5: in solution at pH 7.5
Description: Several exemplary self-assembling peptides described herein (Table 5; SEQ ID NO:21-40) were designed to have a net charge, positive or negative, when formulated at pH 7.5. In contrast, previously-described self-assembling peptides have a net zero charge at the same pH.

[2] = Thixotropic measurements (storage modulus after shear); assay type: physicochemical; conditions: 1% peptide, 0.9% NaCl, pH 7.5; 1000 1/s shear for 1 min
Procedure: Peptides formulated as aqueous solutions (200 μL), were placed between the plates of a rheometer (DHR-1, TA Instruments, 20 mm plates at a measuring geometry of 500 μm) and the sample was exposed to a fast plate rotation at 1000 s^−1 of shear rate for 1 minute and the storage modulus was measured at 1 rad s^−1 angular frequency for 10 minutes.
FIGS. 11 and 12 show the thixotropic properties of pharmaceutical compositions comprising 1% KLNL12 (SEQ ID NO:21) or 1% NLEL12 (SEQ ID NO:33), and 0.9% NaCl, at pH 7.5, after shear stress is removed. The aqueous pharmaceutical compositions were flowed at 1000 l/s of shear rate for 1 min and their storage modulus at 10 rad/s of frequency and at 0.1 Pa of stress was tested over time.

pig stomach submucosa = assay: Submucosal injection in in vivo porcine model, stomach; conditions: 2 mL of 0.1% (w/v) peptide, 0.9% NaCl, pH 7.5; pig stomach
Procedure: An in vivo porcine animal model was used to perform endoscopic mucosal and submucosal dissections as described in Uraoka et al. (2009) Drug Des. Devel. Ther. 2:131-8, incorporated herein by reference. Briefly, 2 mL of select peptide formulations were injected in between the […] in stomach of a pig and the submucosa was dissected using electro-knife. The gross appearance of the injection site and of dissected submucosal tissues at the injection sites were analyzed. […] Therefore, an in vivo porcine model system was used to assess the ability of these compositions to induce submucosal elevation upon injection into gastrointestinal submucosa, and the degree of tissue damage. In this model, submucosal injections with liquid compositions were performed and the morphology of the site of injection analyzed. Submucosal injection with aqueous solutions is used during the excision of lesions from the gastrointestinal tract in order to facilitate removal of the lesion by providing a safety cushion during resection (see, e.g., Kim et al. (2013) World J. Gastroenterol. 19(20): 3069-76, incorporated herein by reference). Here, aqueous pharmaceutical compositions comprising three exemplary self-assembling peptides formulated at pH 7.5: KLNL12 (SEQ ID NO:21), NLKL12 (SEQ ID NO:23) or KIQI13 (SEQ ID NO:29), were compared to an aqueous pharmaceutical composition comprising the previously described RADA16 self-assembling peptide (formulated at pH 2.5), a 0.4% solution of sodium hyaluronate (MucoUp®, Boston Scientific Japan K.K., Tokyo, Japan), and saline, pH 7.5.

[3] = Frequency sweep test (storage modulus) before and after exposure to DMEM; assay type: physicochemical; conditions: 1% (w/v) peptide, pH 7.5
Procedure: Peptides formulated as aqueous solutions were placed between the plates of a rheometer (DHR-1, TA Instruments, 20 mm plates at a measuring geometry of 500 μm or 40 mm cone and plate at a measuring geometry of 2.0° of cone angle) and frequency stress sweep tests were performed at 0.1 Hz to 10 Hz of frequency with 0.1% of strain; measurements were performed after 2 minutes of relaxation time at 37° C. To do frequency sweep tests after exposure to Dulbecco's Modified Eagle Medium (DMEM), 10 mL of DMEM was added in chamber surrounding the plates, the sample in plates was submerged into the DMEM and the frequency test was performed as described after 20 minutes.
Rheological properties of aqueous pharmaceutical compositions comprising the exemplary self-assembling peptides KLNL12 (SEQ ID NO:21), KIQI13 (SEQ ID NO:29), or NLEL12 (SEQ ID NO:33) were determined by performing a frequency sweep test over storage modulus.
In some embodiments, peptides formulated as aqueous solutions, volume 700 μl, were placed between the plates of a rheometer (DHR-1, TA Instruments, 40 mm cone and plate at a measuring geometry of 2.0° of cone angle) and frequency sweep tests were performed at 0.1 Hz to 10 Hz of frequency with 0.1% of strain; measurements were performed after 2 minutes of relaxation time at 37° C. In some embodiments, frequency sweep tests were performed after exposure to Dulbecco's Modified Eagle Medium (DMEM), where 10 mL of DMEM was added in chamber surrounding the plates, the sample in plates was submerged into the DMEM and the frequency test was performed as described after 20 minutes.

[4] = Viscosity determination at increasing shear rate (shear thinning); assay type: physicochemical; conditions: pH 7.5
Procedure: Peptides formulated as aqueous solutions (200 μL), were placed between the plates of a rheometer (DHR-1, TA Instruments, 20 mm plates at a measuring geometry of 500 μm) and the viscosity was measured from 0.001 s^−1 to 100 s^−1 shear rate. Thixotropic Measurements
In some clinical applications, administration of pharmaceutical compositions comprising self-assembling peptides requires exposing the compositions to pressure and/or shear thinning (e.g., during injection through a syringe needle or transferred via a pump-based system). […] To determine the shear thinning properties of pharmaceutical compositions of the self-assembling peptides formulated at pH 7.5, formulations comprising varying ionic strengths were prepared using different concentrations of sodium chloride, and viscosity measured at increasing shear rates. Thixotropic properties of formulations were also determined as well as the storage modulus over time at specific frequencies and pressure.
FIGS. 6-8 show the experimentally determined viscosity of aqueous pharmaceutical compositions comprising either 1% (w/v) KLNL12 (SEQ ID NO:21), 1% (w/v) IQIK13 (SEQ ID NO:28), or 1% (w/v) NLEL12 (SEQ ID NO:33), at pH 7.5. FIGS. 9 and 10 show the experimentally determined viscosity of aqueous pharmaceutical compositions comprising either 1% KLNL12 (SEQ ID NO:21) or 1% NLEL12 (SEQ ID NO:33), and 0.9% NaCl (to mimic physiological conditions) at pH 7.5. […] That is, decreased viscosity with increasing sheer rate. This property may advantageously facilitate application and use of the pharmaceutical compositions (e.g., due to decreased viscosity while pumping) while maintaining a desirable viscosity at a site of application (e.g., where no sheer force is being applied).

porcine esophagus mucosa = assay: Submucosal injection in in vivo porcine esophagus; conditions: pig, in vivo
Procedure: In another embodiment, mucosal aggregation visualized as white precipitate near the injection site was evaluated in an in vivo porcine esophagus.

| Structure (SMILES) | net charge as a function of pH [1] | Net charge at pH 7.5 [1] | thixotropic properties (storage modulus over time after shear stress is removed) [2] | submucosal elevation after injection (pig stomach submucosa) | submucosal elevation over time compared with saline and MucoUp (pig stomach submucosa) | rheological properties (mechanical strength) before and after exposure to DMEM ([3]; 0.9% NaCl) | rheological properties (mechanical strength) before and after exposure to DMEM [3] | viscosity in response to increasing shear rate ([4]; 1% (w/v) peptide) | viscosity in response to increasing shear rate ([4]; 1% peptide, 0.9% NaCl) | mucosal aggregation at injection sites (porcine esophagus mucosa) | Appearance of stomach mucosa (porcine esophagus mucosa; pH 7.5) |
| --- | --- | --- | --- | --- | --- | --- | --- | --- | --- | --- | --- |
| CC(=O)N[C@@H](CCCCN)C(=O)N[C@@H](CC(C)C)C(=O)N[C@@H](CC(N)=O)C(=O)N[C@@H](CC(C)C)C(=O)N[C@@H](CCCCN)C(=O)N[C@@H](CC(C)C)C(=O)N[C@@H](CC(N)=O)C(=O)N[C@@H](CC(C)C)C(=O)N[C@@H](CCCCN)C(=O)N[C@@H](CC(C)C)C(=O)N[C@@H](CC(N)=O)C(=O)N[C@@H](CC(C)C)C(N)=O [KLNL12, Ac-KLNLKLNLKLNL-NH2] (Ac-KLNLKLNLKLNL-NH2) | about +3 | +3 | exhibited thixotropic properties | resulted in submucosal elevation | better submucosal elevation than saline and MucoUp® | increased after DMEM treatment | increased after DMEM treatment | exhibit sheer thinning | exhibit sheer thinning |  |  |
| CC(=O)N[C@@H](CC(N)=O)C(=O)N[C@@H](CC(C)C)C(=O)N[C@@H](CCC(=O)O)C(=O)N[C@@H](CC(C)C)C(=O)N[C@@H](CC(N)=O)C(=O)N[C@@H](CC(C)C)C(=O)N[C@@H](CCC(=O)O)C(=O)N[C@@H](CC(C)C)C(=O)N[C@@H](CC(N)=O)C(=O)N[C@@H](CC(C)C)C(=O)N[C@@H](CCC(=O)O)C(=O)N[C@@H](CC(C)C)C(N)=O [NLEL12, Ac-NLELNLELNLEL-NH2] (Ac-NLELNLELNLEL-NH2) | about −3 | −3 | exhibited thixotropic properties |  |  | increased after DMEM treatment | increased after DMEM treatment | exhibit sheer thinning | exhibit sheer thinning | mucosal aggregation was not observed | clear/transparent |
